{
  "source": "patent EP1746104B1",
  "about": "“NOVEL SOLUBLE CD14 ANTIGEN” (MOCHIDA PHARMACEUTICAL CO., LTD., priority 2004, dated 2005)",
  "key": {"S68 antibody": {"system": "S68 antibody", "experiment": "Peptide blocking of S68 antibody binding to serum protein (specificity of S68 antibody)", "design": "species or system rabbit", "conditions": "peptide 0, 0.1, 1, and 10 µg/mL; sera of sepsis patients and normal donors", "description": "For confirming the specificity of S68 antibody prepared in Example 1, the inventors studied whether blocking occurs by a peptide by the same assay as that of Example 3-(3). That is, S68 peptide (amino acid sequence at positions 53 to 68), synthetic polypeptide prepared by the same way as that of Example 1 (amino acid sequence at positions 53 to 58, amino acid sequence at positions 57 to 62, and amino acid sequence at positions 59 to 64), or negative control peptide (Cys Glu Gly Asn Gly Asn Asn Phe Glu Ser Arg Glu Ala Cys) was diluted to 0, 0.1, 1, and 10 µg/mL and 25 µL of each diluted solution was added to 25 µL of each of 50-fold diluted solutions of the sera obtained from patients suffering from sepsis and the sera of normal donors to initiate a competitive reaction by mixing with S68 antibody. After that, the levels of the soluble protein bound to S68 antibody without inhibition by any peptide were determined.\nThe above result confirmed that a protein being detected in blood by S68 antibody is specifically recognized by S68 antibody. In addition, the result also confirmed that the sequence recognized by the antibody requires a length of at least 7 amino acids because the inhibition can not be attained by three kinds of synthetic peptides (the number of amino acids: 6) corresponding to the partial peptides of S68 peptide."}, "[1]": {"experiment": "Measurement of chemically synthesized peptide with kit of Example 7-(3)", "type": "binding", "description": "A peptide synthesizer ABI433A (Applied) was used and amino acid columns were then aligned according to the amino acid sequences to carry out automatic synthesis. The synthesized peptide was removed from a resin by the conventional method and then recovered by ether precipitation. The resultant peptide was re-dissolved in distilled water and then freeze-dried. After the dissolution, the crude peptide thus obtained was eluted through a linear gradient of 5-70% acetonitrile by the use of C18 reversed phase HPLC (CAPCELL-PAK, Shiseido Co., Ltd.). Consequently, a fraction containing a peptide of interest was collected. The collected fraction was freeze-dried and provided as a purified peptide. The purified peptide was dissolved in the diluent described in Example 7-(12) and then the solution was subjected to the measurement with the kit described in Example 7-(3)."}},
  "note": "Ends that are not written are not given here.",
  "data": [
    {"molecule": "CEGNGNNFESREAC (cysteine pairing not given here) [negative control peptide, reference compound]", "values": [
      {"measurement": "inhibition of the binding between S68 antibody and the soluble protein in serum", "setting": "S68 antibody", "result": "not inhibited"}
    ]},
    {"molecule": "S68 peptide: peptide having the sequence of SEQ ID NO: 2, positions 53 to 68 of SEQ ID NO: 3 (RVDADADPRQYADTVK)", "values": [
      {"measurement": "inhibition of the binding between S68 antibody and the soluble protein in serum", "setting": "S68 antibody", "result": "inhibited"}
    ]},
    {"molecule": "sCD14(1-70): chemically synthesized soluble polypeptide having amino acids at positions 1 to 70 on the N-terminal of human CD14 (peptide) peptide: TTPEPCELDDEDFRCVCNFSEPQPDWSEAFQCVSAVEVEIHAGGLNLEPFLKRVDADADPRQYADTVKAL", "values": [
      {"measurement": "reaction with the kit described in Example 7-(3)", "setting": "[1]", "result": "strongly reacted"}
    ]}
  ]
}
